We go through two compounds from patent publication US20190321345A1, “GLUT4 Selective Inhibitors for Cancer Therapy” (Emory University, priority 2016, published 2019).

The IC50 is the concentration needed to halve the response being measured. The term EC50 denotes the concentration needed to bring the measured effect to its halfway point.

One series concerns the target T1, GLUT4 (Homo sapiens, UniProt P14672).
T1 construct: expressed in transfected cells; host or cells: HEK293 stably expressing GLUT1 shRNA
T1 sequence (P14672 1-509): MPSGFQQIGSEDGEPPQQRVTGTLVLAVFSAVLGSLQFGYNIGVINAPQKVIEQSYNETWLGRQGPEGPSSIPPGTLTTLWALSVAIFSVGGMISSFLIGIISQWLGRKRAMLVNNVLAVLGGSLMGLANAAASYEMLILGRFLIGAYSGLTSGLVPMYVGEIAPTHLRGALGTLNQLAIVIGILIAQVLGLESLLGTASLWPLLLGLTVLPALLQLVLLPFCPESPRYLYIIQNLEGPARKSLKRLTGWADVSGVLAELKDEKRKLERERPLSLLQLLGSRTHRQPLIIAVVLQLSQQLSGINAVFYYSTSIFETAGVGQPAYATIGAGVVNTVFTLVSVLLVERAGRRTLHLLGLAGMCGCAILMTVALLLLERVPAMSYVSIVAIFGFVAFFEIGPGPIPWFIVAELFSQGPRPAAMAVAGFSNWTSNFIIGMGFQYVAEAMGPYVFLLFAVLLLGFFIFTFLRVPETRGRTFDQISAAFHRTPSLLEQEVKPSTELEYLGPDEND
Description: 2-DOG transport in HEK293 cells over-expressing GLUT4. It is filed as cell-based. Particulars: for IC50: pre-treated 5 minutes, 2-DOG uptake 4 min, cells lacking GLUT1, read-out: IC50 (inhibition of 2-DOG transport in HEK cells over-expressing GLUT isoforms) GLUT4. On the procedure: (§1) Tissue culture plates were pretreated with 25 μg/ml polyethyleneimine (Fluka, catalogue number P3143) in 150 mM NaCl for 20min to let cells adhere. JNN3 cells were subsequently plated and grown to 40-60% confluency in complete RPMI 1640 medium. HEK293 GLUT overexpressing cells were plated at 400,000 cells/ml overnight. Cells were then washed with glucose-free HEPES buffer twice and starved for 30 min. The uptake of 2-[^3H] deoxy-D-glucose (2-DOG) (50 μM) was measured in glucose-free HEPES buffer for 4-6 min at 37° C. Compound 20 (20 μM) was added 5-6 min prior to the addition of glucose depending on the specific assay. For the HEK293 GLUT overexpressing cells, non-specific uptake was measured in non-transfected HEK293 cells containing the shRNA GLUT1 knockdown and was subtracted from the experimental values. Data are plotted as percent uptake relative to unexposed HEK293 cultures. Data were normalized to fit by nonlinear regression analysis using GraphPad Prism software.
(§2) Compound 20 was further screened for GLUT4 selectivity by evaluating inhibition of glucose transport in HEK 293 cells exogenously over-expressing human GLUTs-1, -2, -3, -4, or -8 that also stably express GLUT1 shRNA (except the GLUT1 overexpressing cell line) to knock down endogenous GLUT1.
(§3) Glucose transport in HEK293 cells over-expressing GLUT1 or over-expressing GLUT4 or GLUT8 in cells lacking GLUT1 were used to evaluate inhibition of glucose transport. Cells were pre-treated with compound for 5 minutes followed by evaluation of […] uptake for 4 min at […]. Non-specific uptake was measured in nontransfected HEK293 cells containing the shRNA GLUT1 knockdown and was subtracted from the experimental values.

For a further series, the target named is T2, GLUT8 (Homo sapiens, UniProt Q9NY64).
T2 construct: expressed in transfected cells; host or cells: HEK293 stably expressing GLUT1 shRNA
T2 sequence (Q9NY64 1-477): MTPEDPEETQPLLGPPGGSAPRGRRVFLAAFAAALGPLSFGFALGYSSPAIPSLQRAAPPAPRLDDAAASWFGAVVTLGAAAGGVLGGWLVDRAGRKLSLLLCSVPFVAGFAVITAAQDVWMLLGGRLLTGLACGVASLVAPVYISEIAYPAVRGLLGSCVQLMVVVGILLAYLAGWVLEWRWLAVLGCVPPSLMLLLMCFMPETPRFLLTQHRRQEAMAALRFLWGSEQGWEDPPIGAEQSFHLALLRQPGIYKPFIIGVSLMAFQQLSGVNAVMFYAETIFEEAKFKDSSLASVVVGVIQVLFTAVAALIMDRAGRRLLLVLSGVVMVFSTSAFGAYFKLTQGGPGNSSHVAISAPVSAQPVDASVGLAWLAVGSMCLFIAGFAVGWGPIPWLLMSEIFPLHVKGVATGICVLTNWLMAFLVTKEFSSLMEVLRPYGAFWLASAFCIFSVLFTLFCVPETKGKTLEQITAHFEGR
Briefly: 2-DOG transport in HEK293 cells over-expressing GLUT8. Type of series: cell-based. Particulars: pre-treated 5 minutes, 2-DOG uptake 4 min; cells lacking GLUT1; read-out: IC50 (inhibition of 2-DOG transport in HEK cells over-expressing GLUT isoforms) GLUT8. As to the method:
as §1, §2, §3

The next series has as its system H1299 cell. Briefly: H1299 cell invasion. Type of series: cell-based, human. As to conditions: FIG. 9.
Another series relates to KMS11-GFP cells. Briefly: Proliferation of KMS11-GFP myeloma cells (Cell Titre Glo). It is filed as cell-based. As to the method:
(§4) IC50 studies were performed using the CellTiter-Glo assay (Promega, Madison, Wis.). 20,000 cells in 100 ul complete RPMI 1640 medium were plated per well in 96-well plates, with a concentration range of individual compounds. After 72 h incubation, 100 uL Glo reagent were added to each well and luminescence was measured using a Biotek Synergy 4 multimode plate reader. Cell number was assessed by trypan blue standing and an automatic cell counter (Biorad). For cell viability assays 0.125×10^6 cells/mL were treated with the indicated concentration of drug, washed with 1×PBS and evaluated for viability by AnnexinV/DAPI staining and flow cytometry. Data analysis was per-formed with the FCS express version 3 (De Novo software, Los Angeles).
(§5) Compound were selected as a lead based on its low IC50, selectivity for inhibition of glucose transport through GLUT4, and inhibition of the KMS11-GFP cell line proliferation in contrast to the GLUT1 expressing isogenic line. Compounds were assessed in a high-throughput proliferation-based assay using an isogenic MM (KMS11) cell line pair overexpressing GLUT1 or GFP (as a control) (model of screen is depicted in FIG. 2A). […] Isogenic KMS11-GFP/GLUT1 overexpressing myeloma cell lines were treated with a dose range of the indicated test compound for 72 hours followed by evaluation of viable cell number by Cell Titre Glo assay

For the next series, the system named is KMS11-GLUT1 cells. Description: Proliferation of KMS11-GLUT1 myeloma cells (Cell Titre Glo). As to conditions: inhibition of proliferation, 72 hours. It is filed as cell-based. As to the method: as §4, §5
A further series has as its system KMS11 cells. Briefly: Cell viability by AnnexinV/DAPI staining and flow cytometry in KMS11 cells. Particulars: compared with compounds 8, 9, 17. Type of series: cell-based. As to the method: as §4
They were selected and their effect on cell viability evaluated by AnnexinV/DAPI staining and flow cytometric analysis.
(In general: In flow cytometry, cells or beads pass a laser one at a time.)

Series [1] deals with JJN3 cells. Description: 2-[3H]deoxyglucose uptake in JJN3 cells. Type of series: cell-based. Particulars: 20 μM, 6 min pre-treatment, 6 min uptake at 37 degrees C; compared with GLUT4 shRNA. As to the method: as §1
(§6) Impact of compound 20 was evaluated on glucose uptake in MM cells.

Series [2] has as its system JJN3 cells expressing GLUT4 shRNA. Briefly: Viability/proliferation of JJN3 cells with GLUT4 shRNA (trypan blue, cell counter). It is filed as cell-based. Particulars: 15 μM, 72 hours. As to the method:
as §4, §6

A further series has as its system MCL-1. Briefly: Immunoblot of MCL-1 expression in MM cells. Particulars: L363 cells vs JJN3, 15 μM for 18 hours. Type of series: cell-based.
The subject of another series is L363 cells. Briefly: Cell death with ABT-199 co-treatment in L363 cells (AnnexinV/DAPI). It is filed as cell-based. As to conditions: 10 μM with 0.025 μM-3 μM ABT-199, 72 hours. On the procedure:
Compound 20 decreasing MCL-1 expression and sensitizing MM cell lines to Venetoclax (ABT-199),
(§7) Cell death was evaluated by AnnexinV/DAPI flow cytometric staining.
as §4, with “Data analysis was per-formed with the FCS express version 3 (De Novo software, Los Angeles).” left out
(§8) KD of GLUT4 and glucose deprivation lead to variable suppression of the pro-survival anti-apoptotic protein MCL-1. […] Compound 20 was evaluated for sensitizing MM patient samples to ABT-199. CD38+/CD45− gated myeloma cells from myeloma patient bone marrow aspirates were evaluated for viability after 48 hrs of treatment. […] To rule out the cytotoxic effect of co-treatment of compound 20 with either ABT-199 or dexamethasone on other non-myeloma cell populations, cell viability of CD38−/CD45− and CD38−/CD45+ cells were analyzed within the MM patient sample bone marrow aspirate (FIG. 6G). […]

In series [3] the test system is JJN3 cells. Description: Cell death with ABT-199 co-treatment in JJN3 cells (AnnexinV/DAPI). It is filed as cell-based. As to conditions: co-treatment with ABT-199. As to the method:
as §7, §4, §8

For series [4], the system named is CD38+/CD45- gated myeloma cells from myeloma patient bone marrow aspirates. Description: Cell death of myeloma cells from MM patient bone marrow aspirates. Type of series: cell-based, human. On the procedure:
CD38-phyocerythrin and CD45-allophycocyanin-Cy7 positive myeloma cells were evaluated for cell death.
(§9) KD of GLUT4 and glucose deprivation lead to variable suppression of the pro-survival anti-apoptotic protein MCL-1. […] Cells resistant to glucose deprivation-induced cell death increase binding of pro-apoptotic BIM to BCL-2, facilitating sensitization to the BH3 mimetic venetoclax (ABT-199). 22 Treatment of glucose-deprived resistant cells with ABT-199 releases the additional BIM bound to BCL-2, inducing apoptosis. […] Compound 20 was evaluated for sensitizing MM patient samples to ABT-199. CD38+/CD45− gated myeloma cells from myeloma patient bone marrow aspirates were evaluated for viability after 48 hrs of treatment. […] The ability of compound 20 to sensitize MM cells and induce cell death to the commonly used steroid dexamethasone (Dex) was tested. […] To rule out the cytotoxic effect of co-treatment of compound 20 with either ABT-199 or dexamethasone on other non-myeloma cell populations, cell viability of CD38−/CD45− and CD38−/CD45+ cells were analyzed within the MM patient sample bone marrow aspirate (FIG. 6G). […] Lastly, compound 20 was also found to sensitize MM.15 cells to a dose range of the alkylating agent melphalan (Mel) that was assessed in a 72 hr treatment period (FIG. 6H).

For the next series, the system named is MM.1S cells. Briefly: Cell death with dexamethasone or melphalan co-treatment in MM.1S cells (AnnexinV/DAPI). As to conditions: 72 hr. Type of series: cell-based. On the procedure:
as §7, §4, §8

Series [5] deals with CD38-/CD45- and CD38-/CD45+ cells. Description: Viability of normal non-myeloma cell populations in MM patient bone marrow aspirate. Particulars: in combination with either ABT-199 or Dex. It is filed as cell-based.
Source text: Data from patient #6 is representative of patient samples evaluated.
as §9, with “tested. Compound 20 treated MM.1S cells were exposed to a dose range of Dex (0.00195 μM to 1 μM) for 72 hr (FIG. 6E).” for “tested.”

The test system of series [6] is follower lung cancer cell. Briefly: Follower lung cancer cell invasion. It is filed as cell-based. Particulars: FIG. 7.
In the next series the test system is FAK. Briefly: FAK activation, scratch assay. Type of series: cell-based. As to conditions: FIG. 8.

As for `COc1ccc(C(=O)N(Cc2ccncc2)Cc2cccc(OCCc3ccc(F)cc3)c2)cc1` [Compound 26], the IC50 at GLUT4 came to 3.5 µM; on GLUT8, 6 µM. Also, the H1299 cell invasion entry in the series with H1299 cell is given as “inhibits H1299 cell invasion”.

`COc1ccc(CC(=O)N(Cc2ccncc2)Cc2cccc(OCCc3ccc(F)cc3)c2)cc1` [Compound 20, N-(3-(4-fluorophenethoxy)benzyl)-2-(4-methoxyphenyl)-N-(pyridin-4-ylmethyl)acetamide]: the concentration giving a half-maximal response (EC50) in the series on KMS11-GFP cells (inhibition of proliferation, 72 hours, Cell Titre Glo) amounted to 13.4 µM; in the series on KMS11-GLUT1 cells, 21.8 µM. In addition, the “impact on proliferation in KMS11-GFP cells compared with KMS11-GLUT1 cells” value in the series with KMS11-GFP cells (isogenic cell line pair) is reported as “greater impact on proliferation in KMS11-GFP cells”. Also, the “cell death in KMS11 cells” value with KMS11 cells was “greater cell death”. Further, the “selectivity of glucose transport inhibition among human GLUTs-1, -2, -3, -4, -8” value on GLUT4 (HEK 293 cells over-expressing human GLUTs, 4 minute uptake of 2-DOG) is “selective for GLUT4 over GLUTs 1, 2, 3 and 8”. The IC50 on GLUT4 was determined as 18.2 µM. In addition, in the series with JJN3 cells [1], the “2-DOG uptake in JJN3 cells” value is “effectively reduced”. Moreover, the “viable cell counts in GLUT4 knockdown cells” value in [2] is recorded as “no further reduction”. Moreover, the MCL-1 expression result in the series with MCL-1 was “significantly reduced”. Also, the “sensitivity to ABT-199, L363 cell line” value in the series on L363 cells is “increased sensitivity to ABT-199”. The “sensitivity to ABT-199, JJN3 cell line” value with JJN3 cells [3] was “increased sensitivity to ABT-199”. The “sensitization of MM patient samples to combination with dexamethasone” value in series [4] (0.5 μM dexamethasone and 10 μM compound 20, 48 hr) is “sensitized”. The “relapse/refractory patient samples with greater apoptosis on co-treatment with ABT-199 than either drug alone” value in series [4] (10 μM with 0.5 μM ABT-199, 48 hrs) is on record as 4 of 7. Further, the “sensitization to melphalan (Mel)” value in the series with MM.1S cells (10 μM with 0.01 μM-4 μM melphalan) is listed as “sensitize”. Moreover, the “sensitization to dexamethasone (Dex), cell death in MM.1S” value with MM.1S cells (10 μM with Dex 0.00195 μM to 1 μM) was “significant sensitization and cell death”. Moreover, in [5], the “viability of normal non-myeloma cell populations” value is given as “did not impact the viability”. Also, the “follower lung cancer cell invasion” value in series [6] is given as “inhibits follower lung cancer cell invasion”. Also, in the series with FAK, the FAK activation result is on record as “inhibits FAK activation”.
